This passage reports aqueous solubility results from patent publication US20060160863A1, “Polymorphic and amorphous forms of 2-{3-[(E)-2-(4,6-dimethyl-pyridin-2-yl)-vinyl]-1H-indazol-6-ylamino}-N-(4-hydroxy-but-2-ynyl)benzamide” (AGOURON PHARMACEUTICALS, INC., priority 2005, published 2006).

This series is described as follows: aqueous solubility in 0.1 M sodium phosphate buffer (pH 7.4). The class given is physicochemical. An excerpt: The present invention provides several polymorph crystalline forms and an amorphous form of the compound of Formula I. Each crystalline or amorphous form of the compound can be characterized by one or more of the following: X-ray powder diffraction pattern (i.e., X-ray diffraction peaks at various diffraction angles (2θ), melting point onset (and onset of dehydration for hydrated forms) as illustrated by endotherms of a Differential Scanning Calorimetry (DSC) thermogram, aqueous solubility, light stability under International Conference on Harmonization (ICH) high intensity light conditions, and physical and chemical storage stability.

≈ marks a conversion by molar mass, not a printed value.

Broadly, the aqueous solubility is how much of the substance goes into solution per volume. A high value points to much dissolved substance.

Turning to `Cc1cc(C)nc(/C=C/c2n[nH]c3cc(Nc4ccccc4C(=O)NCC#CCO)ccc23)c1` [Form III, 2-{3-[(E)-2-(4,6-dimethyl-pyridin-2-yl)-vinyl]-1H-indazol-6-ylamino}-N-(4-hydroxy-but-2-ynyl)-benzamide], the aqueous solubility worked out at 3.2 µg/mL (≈ 7.09 µM). Next, `Cc1cc(C)nc(/C=C/c2n[nH]c3cc(Nc4ccccc4C(=O)NCC#CCO)ccc23)c1` [Form II, 2-{3-[(E)-2-(4,6-dimethyl-pyridin-2-yl)-vinyl]-1H-indazol-6-ylamino}-N-(4-hydroxy-but-2-ynyl)-benzamide]: 1.3 µg/mL (≈ 2.88 µM); `Cc1cc(C)nc(/C=C/c2n[nH]c3cc(Nc4ccccc4C(=O)NCC#CCO)ccc23)c1` [Form Ia, 2-{3-[(E)-2-(4,6-dimethyl-pyridin-2-yl)-vinyl]-1H-indazol-6-ylamino}-N-(4-hydroxy-but-2-ynyl)-benzamide]: 0.8 µg/mL (≈ 1.77 µM). Turning to `Cc1cc(C)nc(/C=C/c2n[nH]c3cc(Nc4ccccc4C(=O)NCC#CCO)ccc23)c1` [Form IV, 2-{3-[(E)-2-(4,6-dimethyl-pyridin-2-yl)-vinyl]-1H-indazol-6-ylamino}-N-(4-hydroxy-but-2-ynyl)-benzamide], the aqueous solubility turned out to be 1.3 µg/mL (≈ 2.88 µM).
